From patent US10206394B2, “Herbicidal compounds” (Syngenta Participations AG, priority 2014, dated 2019)
Where two headings read alike, the source gives them in different places.

Key:
Test in all cases: Glasshouse assay for herbicidal activity (pre- and post-emergence), percentage phytotoxicity
Assay type in all cases: in vivo
[1] = tested on: Alopecurus myosuroides (ALOMY); settings: Alopecurus myosuroides, rate 250 g/ha
Outline: (§1)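 Percent injury was estimated by eye on a scale where 0% means no damage and 100% complete damage. Ratings came 15 DAA post-emergence and 20 DAA pre-emergence, with plants held under 16 h light and 65% humidity at 24/18 °C or 20/16 °C day/night.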

Avena fatua (AVEFA) = settings: Avena fatua, rate 250 g/ha
Outline: as §1

[2] = tested on: Echinochloa crus-galli (ECHCG); settings: Echinochloa crus-galli, rate 250 g/ha
Outline: as §1

Lolium perenne (LOLPE) = settings: Lolium perenne, rate 250 g/ha
Outline: as §1

[3] = post-emergence, 360 h, POST-emergence, visual score 15 DAA (100%=total damage, 0%=no damage), read-out: Post-emergence herbicidal activity (percentage phytotoxicity) ALOMY POST
[4] = pre-emergence, 480 h, PRE-emergence, visual score 20 DAA (100%=total damage, 0%=no damage), read-out: Pre-emergence herbicidal activity (percentage phytotoxicity) ALOMY PRE
[5] = post-emergence, 360 h, POST-emergence, visual score 15 DAA (100%=total damage, 0%=no damage), read-out: Post-emergence herbicidal activity (percentage phytotoxicity) AVEFA POST
[6] = pre-emergence, 480 h, PRE-emergence, visual score 20 DAA (100%=total damage, 0%=no damage), read-out: Pre-emergence herbicidal activity (percentage phytotoxicity) AVEFA PRE
[7] = post-emergence, 360 h, POST-emergence, visual score 15 DAA (100%=total damage, 0%=no damage), read-out: Post-emergence herbicidal activity (percentage phytotoxicity) ECHCG POST
[8] = pre-emergence, 480 h, PRE-emergence, visual score 20 DAA (100%=total damage, 0%=no damage), read-out: Pre-emergence herbicidal activity (percentage phytotoxicity) ECHCG PRE
[9] = post-emergence, 360 h, POST-emergence, visual score 15 DAA (100%=total damage, 0%=no damage), read-out: Post-emergence herbicidal activity (percentage phytotoxicity) LOLPE POST
[10] = pre-emergence, 480 h, PRE-emergence, visual score 20 DAA (100%=total damage, 0%=no damage), read-out: Pre-emergence herbicidal activity (percentage phytotoxicity) LOLPE PRE

SMILES | pest or weed control at 250 g/ha [1, 3] | pest or weed control at 250 g/ha [1, 4] | pest or weed control at 250 g/ha (Avena fatua (AVEFA); [5]) | pest or weed control at 250 g/ha (Avena fatua (AVEFA); [6]) | pest or weed control at 250 g/ha [2, 7] | pest or weed control at 250 g/ha [2, 8] | pest or weed control at 250 g/ha (Lolium perenne (LOLPE); [9]) | pest or weed control at 250 g/ha (Lolium perenne (LOLPE); [10])
C/C=C/c1cc(C)c(C2C(=O)CC(CC(=O)NCC3CC3)C2=O)c(C)c1 (stereo not drawn) [Compound B247] | 100% | 90% | 100% | 80% | 100% | 60% | 100% | 80%
C/C=C/c1cc(C)c(C2C(=O)CC(CC(=O)N(C)CC)C2=O)c(C)c1 (stereo not drawn) [Compound B248] | 100% | 50% | 100% | 50% | 100% | 60% | 100% | 80%
C/C=C/c1cc(C)c(C2C(=O)CC(CC(=O)N(C)C(C)(C)C)C2=O)c(C)c1 (stereo not drawn) [Compound B249] | 70% | 80% | 70% | 30% | 80% | 80% | 60% | 70%
C#CCN(C)C(=O)CC1CC(=O)C(c2c(C)cc(/C=C/C)cc2C)C1=O (stereo not drawn) [Compound B250] | 100% | 50% | 90% | 50% | 100% | 90% | 100% | 80%
CCc1cc(C)cc(C)c1C1C(=O)CC(CC(=O)NCc2cccc(Cl)c2)C1=O (stereo not drawn) [Compound B251] | 100% | 90% | 90% | 60% | 100% | 90% | 100% | 90%
CCc1cc(C)cc(C)c1C1C(=O)CC(CC(=O)NCc2cccc(F)c2)C1=O (stereo not drawn) [Compound B252] | 100% | 100% | 90% | 70% | 100% | 100% | 100% | 100%
CCc1cc(C)cc(C)c1C1C(=O)CC(CC(=O)NCc2ccc(OC)cc2)C1=O (stereo not drawn) [Compound B253] | 100% | 100% | 100% | 80% | 100% | 90% | 100% | 90%
CCc1cc(C)cc(C)c1C1C(=O)CC(CC(=O)NCc2ccc(C#N)cc2)C1=O (stereo not drawn) [Compound B254] | 100% | 90% | 100% | 90% | 100% | 100% | 100% | 90%
CCc1cc(C)cc(C)c1C1C(=O)CC(CC(=O)NC(C)C)C1=O (stereo not drawn) [Compound B255] | 100% | 100% | 100% | 80% | 100% | 100% | 100% | 100%
C=CCNC(=O)CC1CC(=O)C(c2c(C)cc(C)cc2CC)C1=O (stereo not drawn) [Compound B256] | 100% | 100% | 100% | 100% | 100% | 100% | 100% | 100%
CCc1cc(C)cc(C)c1C1C(=O)CC(CC(=O)NCC2CC2)C1=O (stereo not drawn) [Compound B257] | 100% | 100% | 100% | 90% | 100% | 100% | 100% | 100%
CCc1cc(C)cc(C)c1C1C(=O)CC(CC(=O)N(C)CC)C1=O (stereo not drawn) [Compound B258] | 100% | 100% | 100% | 90% | 100% | 100% | 100% | 100%
CCc1cc(C)cc(C)c1C1C(=O)CC(CC(=O)N(C)C(C)(C)C)C1=O (stereo not drawn) [Compound B259] | 100% | 100% | 100% | 90% | 100% | 100% | 100% | 100%
C#CCN(C)C(=O)CC1CC(=O)C(c2c(C)cc(C)cc2CC)C1=O (stereo not drawn) [Compound B260] | 100% | 90% | 100% | 80% | 100% | 100% | 100% | 100%
CCc1cc(OCC(F)(F)F)cc(C)c1C1C(=O)CC(CC(=O)NCc2cccc(Cl)c2)C1=O (stereo not drawn) [Compound B261] | 100% | 80% | 100% | 80% | 100% | 90% | 100% | 90%
Cc1cc(-n2cc(Cl)cn2)cc(C)c1C1C(=O)CC(CC(=O)NCc2cccc(Cl)c2)C1=O (stereo not drawn) [Compound B262] | 70% | 60% | 90% | 40% | 100% | 80% | 70% | 60%
Cc1cc(-c2ncc(F)cn2)cc(C)c1C1C(=O)CC(CC(=O)NCc2ccccc2)C1=O (stereo not drawn) [Compound B263] | 100% | 90% | 100% | 80% | 100% | 100% | 100% | 80%
Cc1cc(-c2ncc(F)cn2)cc(C)c1C1C(=O)CC(CC(=O)NCc2cccc(F)c2)C1=O (stereo not drawn) [Compound B264] | 100% | 100% | 100% | 80% | 100% | 100% | 100% | 90%
Cc1cc(-c2ncc(F)cc2F)cc(C)c1C1C(=O)CC(CC(=O)N(C)C)C1=O (stereo not drawn) [Compound B265] | 100% | 100% | 100% | 100% | 100% | 100% | 100% | 100%
COCCN(CCOC)C(=O)CC1CC(=O)C(c2c(C)cc(-c3ncc(F)cc3F)cc2C)C1=O (stereo not drawn) [Compound B266] | 100% | 100% | 100% | 40% | 100% | 100% | 80% | 90%
Cc1cc(-c2ncc(F)cc2F)cc(C)c1C1C(=O)CC(CC(=O)N(C)C(C)(C)C)C1=O (stereo not drawn) [Compound B267] | 100% | 100% | 100% | 80% | 100% | 100% | 100% | 100%
